# Tested on: BxPC3 tumors
# Assay: Protocol 95: TCMC saturation, CA amount and ^212Pb activity on tumor-associated radioactivity
# Assay type: in vivo, mice
# Settings: no clearing agent
# Text: In this study, nine different clearing agents based on dextran-500 were compared in terms of inhibition of ^212Pb-DOTAM association to tumors. More specifically, the experiment assessed the impact on tumor-associated radioactivity from i) TCMC saturation, ii) clearing agent-to-antibody ratio, and iii) production/purification method. In addition, the tumor uptake was compared after injection of 10 or 30 μCi of ^212Pb-DOTAM, without pretargeting or CA, to assess whether radioactivity saturation of the tumor was achieved already at the lower dose.
# PRIT-0165 (100 μg per 100 μL) was administered i.v., followed three days later by dextran-500-based clearing reagents (10-170 μg per 100 μL) with varying TCMC substitution (10-100%). Groups J and K received PBS instead of clearing agent. Two hours later, mice were injected i.v. with 100 μL of the respective ^212Pb-DOTAM solutions (10 or 30 μCi).
# Mice were sacrificed and necropsied 24 hours after injection of ^212Pb-DOTAM. Blood, bladder, spleen, kidneys, liver, lung, muscle, tail, and tumors were collected, weighed and measured for radioactivity content, and the % ID/g subsequently calculated.
compound,measurement,setting,value
NC(=O)CN1CCN(CC(N)=O)CCN(CC(N)=O)CCN(CC(N)=O)CC1.[212Pb+2] [^212Pb-DOTAM],"tumor accumulation (±SD, n=3)",10 μCi,72.38±10.83 % ID/g
same,"tumor accumulation (±SD, n=3)",30 μCi,107.74±14.71 % ID/g
